Measured values published in PubChem BioAssay (NCI).
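Each compound was tested at five concentrations against cells in 96-well plates for 48 hours. At the TGI there is no net growth.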

Key:
Experiment in all cases: DTP human tumour cell line panel, 48 h
[1] = test system: 786-0 renal
[2] = test system: A549 NSCLC
[3] = test system: ACHN renal
[4] = test system: COLO 205 colon
[5] = test system: DLD-1 colon
[6] = test system: DMS 114 small cell lung
[7] = test system: DMS 273 small cell lung
[8] = test system: EKVX NSCLC
[9] = test system: HCT-15 colon
[10] = test system: HOP-18 NSCLC
[11] = test system: HOP-62 NSCLC
[12] = test system: HT29 colon
[13] = test system: IGROV1 ovarian
[14] = test system: K-562 leukemia
[15] = test system: KM12 colon
[16] = test system: KM20L2 colon
[17] = test system: LOX IMVI melanoma
[18] = test system: M14 melanoma
[19] = test system: M19-MEL melanoma
[20] = test system: MALME-3M melanoma
[21] = test system: MOLT-4 leukemia
[22] = test system: NCI-H226 lung
[23] = test system: NCI-H23 lung
[24] = test system: NCI-H460 lung
[25] = test system: NCI-H522 lung
[26] = test system: OVCAR-3 ovarian
[27] = test system: OVCAR-8 ovarian
[28] = test system: RPMI-8226 leukemia
[29] = test system: RXF 393 renal
[30] = test system: SF-295 CNS
[31] = test system: SF-539 CNS
[32] = test system: SK-MEL-2 melanoma
[33] = test system: SK-MEL-28 melanoma
[34] = test system: SK-MEL-5 melanoma
[35] = test system: SK-OV-3 ovarian
[36] = test system: SN12C renal
[37] = test system: SNB-19 CNS
[38] = test system: SNB-75 CNS
[39] = test system: SW-620 colon
[40] = test system: TK-10 renal
[41] = test system: U251 CNS
[42] = test system: UACC-257 melanoma
[43] = test system: UACC-62 melanoma
[44] = test system: UO-31 renal
[45] = test system: XF 498 CNS
[46] = test system: A498 renal
[47] = test system: BT-549 breast
[48] = test system: CCRF-CEM leukemia
[49] = test system: DU-145 prostate
[50] = test system: HCC-2998 colon
[51] = test system: HCT-116 colon
[52] = test system: HL-60(TB) leukemia
[53] = test system: LXFL 529 NSCLC
[54] = test system: MCF7 breast
[55] = test system: MDA-MB-231 breast
[56] = test system: MDA-N
[57] = test system: OVCAR-4 ovarian
[58] = test system: OVCAR-5 ovarian
[59] = test system: PC-3 prostate
[60] = test system: SF-268 CNS
[61] = test system: SNB-78 CNS
[62] = test system: T-47D breast

In the case of `CC1=C(C)C(=O)c2c(cc3c4ccccc4ccn23)C1=O`, the TGI [1] is reported as > 100 µM, the TGI [2] is reported as > 100 µM and the TGI [3] is reported as > 100 µM. For the same molecule, the TGI [4] was > 100 µM, the TGI [5] was > 100 µM and the TGI [6] was > 100 µM. For the same molecule, the TGI [7] was > 100000 nM, the TGI [8] was > 100 µM and the TGI [9] was > 100 µM. The TGI [10] was > 100 µM, the TGI [11] was > 100 µM and the TGI [12] was > 100 µM. The TGI [13] was > 100 µM, the TGI [14] was > 100 µM and the TGI [15] was > 100 µM. The TGI [16] was > 100000 nM, the TGI [17] was > 100 µM and the TGI [18] was > 100 µM. The TGI [19] was > 100 µM, the TGI [20] was > 100 µM and the TGI [21] was > 100 µM. The TGI [22] was > 100 µM, the TGI [23] was > 100 µM and the TGI [24] was > 100 µM. The TGI [25] was > 100000 nM, the TGI [26] was > 100000 nM and the TGI [27] was > 100 µM. For the same molecule, the TGI [28] was > 100 µM, the TGI [29] was > 100000 nM and the TGI [30] was > 100 µM. The TGI [31] was > 100 µM, the TGI [32] was > 100 µM and the TGI [33] was > 100 µM. For the same molecule, the TGI [34] was > 100 µM, the TGI [35] was > 100 µM and the TGI [36] was > 100 µM. For the same molecule, the TGI [37] was > 100 µM, the TGI [38] was > 100000 nM and the TGI [39] was > 100 µM. For the same molecule, the TGI [40] was > 100 µM, the TGI [41] was > 100 µM and the TGI [42] was > 100 µM. For the same molecule, the TGI [43] was > 100 µM, the TGI [44] was > 100 µM and the TGI [45] was > 100 µM.

For `Cc1cc(NC(=O)NC(=O)c2ccccc2[N+](=O)[O-])ccc1Oc1ncc(Cl)cn1`, the TGI [1] was 26.4 µM, the TGI [46] was 19.6 µM and the TGI [2] was > 100 µM. The TGI [3] was 42.1 µM, the TGI [47] was 91.5 µM and the TGI [48] was > 100 µM. For the same molecule, the TGI [4] was > 20 µM, the TGI [5] was 43.7 µM and the TGI [6] was > 100 µM. The TGI [7] was 365 nM, the TGI [49] was > 100 µM and the TGI [8] was > 100 µM. The TGI [50] was 600 nM, the TGI [51] was 18 µM and the TGI [9] was > 100 µM. It also gave a TGI [52] of 137 nM, a TGI [10] of 91.1 µM and a TGI [11] of 19.4 µM. For the same molecule, the TGI [12] was 3.38 µM, the TGI [13] was 98.9 µM and the TGI [14] was > 100 µM. The TGI [15] was 13 µM, the TGI [16] was 440 nM and the TGI [17] was > 100 µM. For the same molecule, the TGI [53] was 24.3 µM, the TGI [18] was 35.7 µM and the TGI [19] was > 100 µM. For the same molecule, the TGI [20] was 43.8 µM, the TGI [54] was > 100 µM and the TGI [55] was 26.9 µM. For the same molecule, the TGI [56] was 29.5 µM, the TGI [21] was > 100 µM and the TGI [22] was 12.8 µM. For the same molecule, the TGI [23] was > 80.5 µM, the TGI [24] was 18.8 µM and the TGI [25] was 201 nM. The TGI [26] was 1340 nM, the TGI [57] was 31.3 µM and the TGI [58] was > 100 µM. For the same molecule, the TGI [27] was > 37.9 µM, the TGI [59] was 94.5 µM and the TGI [28] was > 100 µM. For the same molecule, the TGI [29] was 147 nM, the TGI [60] was > 82.3 µM and the TGI [30] was 29.3 µM. For the same molecule, the TGI [31] was 9.5 µM, the TGI [33] was 98 µM and the TGI [34] was 3.32 µM. The TGI [35] was 24.1 µM, the TGI [36] was > 81.6 µM and the TGI [37] was > 66.2 µM. The TGI [38] was 1590 nM, the TGI [61] was 62.6 µM and the TGI [39] was > 100 µM. For the same molecule, the TGI [62] was > 100 µM, the TGI [40] was > 65.2 µM and the TGI [41] was 4.42 µM. The TGI [42] was > 100 µM, the TGI [43] was > 31.6 µM and the TGI [44] was 75.6 µM. It also gave a TGI [45] of 17.9 µM.
